We go through ten molecules from BindingDB's records for doi:10.1016/s0960-894x(02)00790-4 (British Biotech Pharmaceuticals, 2002).

Structures can show the parent of a compound that is named as a salt.

Peptide deformylase (Escherichia coli), sequence (P0A6K3 whole entry, looked up): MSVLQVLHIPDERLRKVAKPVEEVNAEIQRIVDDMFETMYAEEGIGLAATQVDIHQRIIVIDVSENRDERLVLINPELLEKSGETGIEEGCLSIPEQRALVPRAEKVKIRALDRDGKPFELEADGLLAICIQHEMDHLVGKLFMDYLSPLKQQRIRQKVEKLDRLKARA

The first assay concerns the target Peptide deformylase (Escherichia coli) (UniProt P0A6K3). Briefly: Compound was evaluated for inhibition of peptide deformylase, PDF.Ni of Escherichia coli.
`CCCCC(CS)C(=O)NC(CCCNC(=N)N)C(=O)OC` (stereo not given) [5-Guanidino-2-(2-mercaptomethyl-hexanoylamino)-pentanoic acid methyl ester; TFA] came in with a Ki of 2500 nM.

For a further assay the target is unchanged. Described as above. This is another data set of the same source.
Turning to `CCCC[C@H](CS)C(=O)N[C@@H](CCCCN)C(=O)Nc1ccc([N+](=O)[O-])cc1` [(S)-2-Mercaptomethyl-hexanoic acid [(S)-5-amino-1-(4-nitro-phenylcarbamoyl)-pentyl]-amide], the Ki was 19 nM.

For the next assay the target is unchanged. The assay is described as above. The source holds these as a separate data set.
For `CCCCC(CC(=N)NO)C(=O)N[C@H](C(=O)N(C)C)C(C)(C)C` (stereo partly drawn) [(R)-2-(N-Hydroxycarbamimidoylmethyl)-hexanoic acid ((S)-1-dimethylcarbamoyl-2,2-dimethyl-propyl)-amide], the IC50 is above 1000 nM. The same measure, in the same setting: for `CCCC[C@H](CC(=O)NN)C(=O)N[C@H](C(=O)N(C)C)C(C)(C)C` [(R)-2-Hydrazinocarbonylmethyl-hexanoic acid ((S)-1-dimethylcarbamoyl-2,2-dimethyl-propyl)-amide] the value was 200 nM; for `CCCC[C@H](NCC(=O)O)C(=O)N[C@H](C(=O)N(C)C)C(C)(C)C` [[(S)-1-((S)-1-Dimethylcarbamoyl-2,2-dimethyl-propylcarbamoyl)-pentylamino]-acetic acid], above 1000 nM; for `CCCC[C@H](CNC=O)C(=O)N[C@H](C(=O)N(C)C)C(C)(C)C` [(R)-2-Formylaminomethyl-hexanoic acid ((S)-1-dimethylcarbamoyl-2,2-dimethyl-propyl)-amide], above 1000 nM.

`CCCCC(CP(=O)(O)O)C(=O)N[C@H](C(=O)N(C)C)C(C)(C)C` (stereo partly drawn) [[2-((S)-1-Dimethylcarbamoyl-2,2-dimethyl-propylcarbamoyl)-hexyl]-phosphonic acid] showed an IC50 above 1000 nM. On the same count and under the same terms, for `CCCC[C@H](CC(=O)NO)C(=O)N[C@H](C(=O)N(C)C)C(C)(C)C` [(R)-2-Butyl-N*1*-((S)-1-dimethylcarbamoyl-2,2-dimethyl-propyl)-N*4*-hydroxy-succinamide] the value was 1 nM.

The molecule `CCCC[C@H](CN(O)C(N)=O)C(=O)N[C@H](C(=O)N(C)C)C(C)(C)C` [(2R)-2-{[(aminocarbonyl)(hydroxy)amino]methyl}-N-{(1S)-1-[(dimethylamino)carbonyl]-(2,2-dimethyl)-propyl}hexanamide] gave an IC50 above 1000 nM. Still for that read-out and setting: with `CCCCC(C[PH](=O)O)C(=O)N[C@H](C(=O)N(C)C)C(C)(C)C` (stereo partly drawn) [[2-((S)-1-Dimethylcarbamoyl-2,2-dimethyl-propylcarbamoyl)-hexyl]-phosphinic acid] the figure was above 1000 nM.

By Ki is commonly meant a measure of affinity in units of concentration, obtained from inhibition or displacement. High values mean weaker binding, low ones tighter binding. For orientation: IC50 means the concentration needed to halve the response being measured.
